For 72 molecules, IC50 results are on record in US10906888B2, “Pyrimidine carboxamides as inhibitors of Vanin-1 enzyme” (Pfizer Inc., priority 2016, dated 2021).

Molecules are shown by their SMILES.

Sequence of human vanin-1 (O95497 22-491): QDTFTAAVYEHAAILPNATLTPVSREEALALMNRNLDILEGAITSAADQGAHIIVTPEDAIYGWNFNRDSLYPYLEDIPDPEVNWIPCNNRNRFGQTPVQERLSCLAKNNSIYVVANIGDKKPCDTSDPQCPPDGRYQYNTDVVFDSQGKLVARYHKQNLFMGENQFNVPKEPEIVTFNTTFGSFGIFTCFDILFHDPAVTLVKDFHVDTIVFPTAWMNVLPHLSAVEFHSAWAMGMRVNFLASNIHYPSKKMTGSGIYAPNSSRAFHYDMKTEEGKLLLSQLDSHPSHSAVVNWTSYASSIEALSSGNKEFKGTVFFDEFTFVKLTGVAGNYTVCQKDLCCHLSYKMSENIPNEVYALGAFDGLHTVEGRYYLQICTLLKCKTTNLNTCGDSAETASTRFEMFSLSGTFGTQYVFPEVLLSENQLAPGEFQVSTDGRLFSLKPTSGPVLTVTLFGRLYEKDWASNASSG

In this test the target is human vanin-1 (Homo sapiens (Human), UniProt O95497). As to the kind of experiment: Human Vanin-1 Enzyme Assay 1. The test is classed as biochemical. As to conditions: 25 pM human vanin-1, 50 uM pantetheine 7-amino-4-trifluoromethylcoumarin substrate. Here is the method:
Human Vanin-1Enzyme Assay 1.
The in vitro assay measures enzymatic cleavage of the fluorescently-labeled vanin substrate, pantetheine 7-amino-4-trifluoromethylcoumarin, by human vanin-1.
The vanin-1 protein was prepared in-house from a construct expressing the extracellular domain of human vanin-1 (GenBank ID NM_004666) preceded N-terminally by the honey bee melittin signal peptide, a GSG linker sequence, a His6× tag and a FLAG tag. The secreted, soluble enzyme was purified from the conditioned medium from a CHO cell line stably expressing the resulting protein. Enzyme purification was performed through sequential Ni NTA and size-exclusion chromatography steps.
Intermediate concentrations were prepared by diluting in DMSO in a four-fold series for a total of 11 data points.
To begin the assay 100 nL was transferred from the compound plate to the assay plate. Next, 15 μL of the vanin-1 working solution were transferred to the assay plate. The inhibitor and enzyme were incubated at room temperature for 30 minutes. The enzyme reaction was then initiated by the addition of 5 μL of 200 μM pantetheine 7-amino-4-trifluoromethylcoumarin prepared in assay buffer. […] The final concentration of DMSO was 0.5%.
One may read the IC50 as the midpoint of a concentration-inhibition curve. The molecule `O=C(c1cnc(NC2(c3cncnc3)CC2)nc1)N1CCC[C@@]2(CCCC[C@@H]2O)C1` [Example 77] displayed an IC50 of 31.3 nM. With `O=C(c1cnc(NC2(c3cncnc3)CC2)nc1)N1C[C@H](O)C[C@H](C2CC2)C1` [Example 88] the figure was 28.7 nM.

Turning to `O=C(Nc1ncc(C(=O)N2CCC3(CCOCC3)C2)cn1)c1cnccn1` [Example 204, N-[5-(8-oxa-2-azaspiro[4.5]dec-2-ylcarbonyl)pyrimidin-2-yl]pyrazine-2-carboxamide], the IC50 was determined as 5160 nM.

Consider `O=C(c1cnc(NCc2cccnc2)nc1)N1CCCC2(COC2)C1` [Example 31], for which the IC50 is 3090 nM.

`Cc1nc(NCc2cnccn2)ncc1C(=O)N1CCC2(CCOCC2)C1` [Example 139] yielded an IC50 of over 17600 nM. With `CN1CC2(CCN(C(=O)c3cnc(NC4(c5cncnc5)CC4)nc3)CC2)OC1=O` [Example 57] the figure was 611 nM; with `O=C(c1cnc(NC2(c3cncnc3)CC2)nc1)N1CCC2(CCCC2)CC1` [Example 49], 7.5 nM; with `C[C@@H]1CN(C(=O)c2cnc(NC3(c4cncnc4)CC3)nc2)C[C@H](C)O1` [Example 67], 4240 nM.

The molecule `N#CC1CCCN(C(=O)c2cnc(NC3(c4cncnc4)CC3)nc2)C1` (stereo not drawn) [Example 195] had an IC50 of 10.7 nM. With `C[C@@H]1CN(C(=O)c2cnc(NC3(c4cncnc4)CC3)nc2)C[C@H](C)C1O` (stereo partly drawn) [Example 44] the figure was 2270 nM. `NC(=O)CC1CCN(C(=O)c2cnc(NCc3cccnc3)nc2)CC1` [Example 30] returned an IC50 of 2170 nM. In turn, `O=C(c1cnc(NC2(c3cncnc3)CC2)nc1)N1C[C@@H]2CCCC[C@]2(CO)C1` (relative stereo) [Example 61] displayed an IC50 of 2.51 nM. With `Cc1ccc(C2(Nc3ncc(C(=O)N4CCC5(CCOCC5)C4)cn3)CC2)cn1` [Example 175] the figure was 0.24 nM. With `COC1CCOC2(CCN(C(=O)c3cnc(NC4(c5cncnc5)CC4)nc3)CC2)C1` (stereo not drawn) [Example 91] the figure was 316 nM; with `O=C(c1cnc(NCc2cccnc2)nc1)N1CCC(O)CC1` [Example 21], 528 nM; with `C[C@H](Nc1ncc(C(=O)N2CCC3(CN(C)C3)C2)cn1)c1cnccn1` [Example 122], 43.9 nM. As to `NC(=O)C1CCCN(C(=O)c2cnc(NCc3cccnc3)nc2)C1` (stereo not drawn) [Example 13], the IC50 stood at 101 nM. In the case of `O=C(c1cnc(NC2(c3cncnc3)CC2)nc1)N1CC2(CCOCC2)C1` [Example 189], half-maximal inhibition (IC50) was put at 0.867 nM. With `O=C(c1cnc(NC2(c3cncnc3)CC2)nc1)N1CCCOCC1` [Example 42] the figure was 35.1 nM; with `C[C@@H]1CCCN1C(=O)c1cnc(NC2(c3cncnc3)CC2)nc1` [Example 76], 122 nM; with `CC(=O)NC1CCCN(C(=O)c2cnc(NCc3cccnc3)nc2)C1` (stereo not drawn) [Example 23], 613 nM. With `CO[C@H]1CCN(C(=O)c2cnc(NC3(c4cncnc4)CC3)nc2)C1` [Example 51] the figure was 97.5 nM; with `O=C(c1cnc(NCc2cnccn2)nc1)N1CCN2CC(F)(F)C[C@H]2C1` [Example 116], 113 nM; with `O=C(c1cnc(NCc2cccnc2)nc1)N1CC2(CCOCC2)C1` [Example 2], 1.33 nM. With `O=C(c1cnc(NC2(c3cncnc3)CC2)nc1)N1CCOC2(CCCC2)C1` [Example 52] the figure was 60.3 nM; with `NC(=O)C1CCN(C(=O)c2cnc(NCc3cccnc3)nc2)CC1` [Example 29], 1920 nM. On to `O=C(c1cnc(NC2(c3cnccn3)CCC2)nc1)N1CC2(CCOCC2)C1` [Example 138], for which the IC50 is 0.043 nM. This IC50 lies about 45000-fold lower than the previous one. With `O=C(c1cnc(NC2(c3cncnc3)CC2)nc1)N1CCCC2(CCCC[C@H]2O)C1` (stereo partly drawn) [Example 100] the figure was 135 nM; with `O=C(c1cnc(NCCc2cncnc2)nc1)N1CCC2(CCOCC2)C1` [Example 181], 200 nM; with `CCC1(CO)CCN(C(=O)c2cnc(NC3(c4cncnc4)CC3)nc2)C1` (single isomer, unassigned) [Example 201], 0.582 nM. For the molecule `C[C@H](Nc1ncc(C(=O)N2CCN3CCC[C@H]3C2)cn1)c1cnccn1` [Example 125], the IC50 was 3.04 nM. With `NC(=O)[C@@H]1CCCN1C(=O)c1cnc(NCc2cccnc2)nc1` [Example 32] the figure was 20000 nM. With `N#CCC1CCCCN1C(=O)c1cnc(NCc2cccnc2)nc1` (stereo not drawn) [Example 14] the figure was 156 nM; with `CC(C)(Nc1ncc(C(=O)N2CC3(CCOCC3)C2)cn1)c1cncnc1` [Example 144], 0.743 nM.

For `CS(=O)(=O)C1CCCN(C(=O)c2cnc(NC3(c4cncnc4)CC3)nc2)C1` (stereo not drawn) [Example 198], the IC50 is 20.5 nM. This IC50 is about 28-fold higher than that of the molecule before. With `O=C(c1cnc(NCc2cccnc2)nc1)N1CCC(CO)C1` (stereo not drawn) [Example 11] the figure was 81.7 nM; with `O=C(c1cnc(NCc2cccnc2)nc1)N1[C@@H]2CC[C@H]1C[C@@H](O)C2` [Example 28], 1550 nM. For `O=C(c1cnc(NC2(c3cncnc3)CC2)nc1)N1CCC[C@H]1CO` [Example 66], half-maximal inhibition (IC50) was put at 231 nM. In the case of `O=C(c1cnc(NC2(c3cncnc3)CC2)nc1)N1CCCC[C@H]1CO` [Example 45], the IC50 stood at 1850 nM.

As to `COCC1COCCN(C(=O)c2cnc(NC3(c4cncnc4)CC3)nc2)C1` (stereo not drawn) [Example 85], the IC50 amounted to 167 nM.

`CCC1(CO)CCN(C(=O)c2cnc(NCc3cccnc3)nc2)C1` (stereo not drawn) [Example 4] registered an IC50 of 8.58 nM. `O=C(c1cnc(NCc2cnccn2)nc1)N1CCN2C[C@@H](F)C[C@H]2C1` [Example 110] showed an IC50 of 171 nM. `C[C@@H]1CN(C(=O)c2cnc(NC3(c4cncnc4)CC3)nc2)CCO1` [Example 99] came in with an IC50 of 591 nM. This IC50 lies about 3.5-fold higher than the previous one.

`CC(C)(O)C1CCN(C(=O)c2cnc(NC3(c4cncnc4)CC3)nc2)CC1` [Example 78] yielded an IC50 of 1600 nM.

`O=C(c1cnc(NC2(c3cncnc3)CC2)nc1)N1C[C@H](O)C[C@H](C(F)(F)F)C1` [Example 89] showed an IC50 of 35 nM. For `CC(C)[C@H]1C[C@@H](O)CN(C(=O)c2cnc(NC3(c4cncnc4)CC3)nc2)C1` [Example 40], the IC50 was found to be 26.9 nM. With `C[C@H]1CCCN1C(=O)c1cnc(NC2(c3cncnc3)CC2)nc1` [Example 47] the figure was 29.6 nM; with `C[C@@H]1CN(C(=O)c2cnc(NC3(c4cncnc4)CC3)nc2)[C@H](C)CO1` [Example 58], 116 nM; with `CC1CCCN(C(=O)c2cnc(NC3(c4cncnc4)CC3)nc2)C1` (stereo not drawn) [Example 39], 9.44 nM.

In turn, `Cc1ncc(CNc2ncc(C(=O)N3CC4(CCOCC4)C3)cn2)cn1` [Example 171] displayed an IC50 of 7.33 nM. With `C[C@H](Nc1ncc(C(=O)N2CCN3CCC[C@@H]3C2)cn1)c1cnccn1` [Example 114] the figure was 20.9 nM. For `CS(=O)(=O)C1CCCN(C(=O)c2cnc(NC3(c4cncnc4)CC3)nc2)C1` (single isomer, unassigned) [Example 199], the IC50 stood at 1180 nM. This IC50 lies about 56-fold higher than the previous one. With `O=C(c1cnc(NC2(c3cncnc3)CC2)nc1)N1CCCC(F)C1` (stereo not drawn) [Example 93] the figure was 40.5 nM; with `Cc1ccc(C(C)Nc2ncc(C(=O)N3CCC4(CCOCC4)C3)cn2)nc1` (stereo not drawn) [Example 161], 8.06 nM; with `Cc1nc(NC2(c3cncnc3)CC2)ncc1C(=O)N1CCC2(CCOCC2)C1` [Example 136], 2330 nM. With `O=C(c1cnc(NC2(c3cncnc3)CC2)nc1)N1CCCC[C@@H]1CO` [Example 82] the figure was 147 nM; with `Cc1cc(C2CCN(C(=O)c3cnc(NC4(c5cncnc5)CC4)nc3)C2)[nH]n1` (stereo not drawn) [Example 65], 1.82 nM. With `O=C(c1cnc(NCc2cccnc2)nc1)N1CCn2ccnc2C1` [Example 8] the figure was 37.1 nM. `C[C@H](Nc1ncc(C(=O)N2CC3(CCOCC3)C2)cn1)c1cncnc1` [Example 151] came in with an IC50 of 0.955 nM. The molecule `CN1CC2(CCN(C(=O)c3cnc(NCc4cnccn4)nc3)C2)C1` [Example 119] had a 50% inhibitory concentration (IC50) of 1370 nM. With `O=C(c1cnc(NC2(c3cncnc3)CC2)nc1)N1CC2C(C1)C2C(F)(F)F` (stereo not drawn) [Example 64] the figure was 100 nM; with `CCC1(CO)CCN(C(=O)c2cnc(NC3(c4cncnc4)CC3)nc2)C1` (single isomer, unassigned) [Example 202], 14.3 nM; with `O=C(c1cnc(NCc2cccnc2)nc1)N1C[C@@H]2[C@@H](CO)[C@@H]2C1` [Example 18], 385 nM. With `CN1CC2(COCCN(C(=O)c3cnc(NC4(c5cncnc5)CC4)nc3)C2)OC1=O` (stereo not drawn) [Example 75] the figure was 1080 nM; with `O=C(c1cnc(NCc2cncnc2)nc1)N1CCCCC1` [Example 187], 83.7 nM; with `C[C@H](Nc1ncc(C(=O)N2CCN3CC(F)(F)C[C@H]3C2)cn1)c1cnccn1` [Example 118], 4.64 nM. With `CN1C[C@@H]2C[C@H]1CN2C(=O)c1cnc(NCc2cnccn2)nc1` [Example 112] the figure was over 18900 nM; with `O=C(c1cnc(NCc2cccnc2)nc1)N1CC2CCC(CC2)C1` [Example 27], 1370 nM.

`C[C@@H]1COCCN1C(=O)c1cnc(NC2(c3cncnc3)CC2)nc1` [Example 103] yielded an IC50 of 590 nM. On to `C[C@@H](Nc1ncc(C(=O)N2CC3(CCOCC3)C2)cn1)c1cncnc1` [Example 152], for which the IC50 was 91.3 nM. In turn, `Cc1cnc(CNc2ncc(C(=O)N3CC4(CCOCC4)C3)cn2)cn1` [Example 165] returned an IC50 of 26.3 nM. With `O=C(c1cnc(NCc2cccnc2)nc1)N1CCOCC(O)C1` (stereo not drawn) [Example 20] the figure was 453 nM.
